Data reported in patent publication US12178842B2, “PCSK9 antagonist compounds” (MERCK SHARP & DOHME LLC, priority 2019, dated 2024).

Tests used:
Assay type in all cases: binding
PCSK9 [1] = molecular target: T1, PCSK9 (Homo sapiens, UniProt Q8NBP7); assay: PCSK9 Alexa FRET Standard TR-FRET assay
T1 construct: biotin (biotinylated); purchased
Outline: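 TR-FRET displacement with final 0.5 nM biotinylated PCSK9, 1.25 nM streptavidin-Eu and 20 nM AlexaFluor cyclic peptide in 50 mM HEPES pH 7.4, 0.15 M NaCl, 5 mM CaCl2, 0.01% BSA, 0.01% P20; ≥2 h at room temperature. IC50 by sigmoidal fit, converted to Ki (nM) using tracer KD.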

PCSK9 [2] = molecular target: T1, PCSK9; assay: PCSK9 Alexa FRET Plus TR-FRET assay
Outline: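 TR-FRET competition between europium-labeled PCSK9 and AlexaFluor-tagged cyclic peptide (prepared at 1920 nM stock), incubated at least 2 h at room temperature. IC50 from sigmoidal nonlinear fit converted to Ki using the peptide KD; falling europium counts flag false-positive inhibition; values reported in nM.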

PCSK9 [3] = molecular target: T1, PCSK9; assay: PCSK9 Alexa FRET Ultra TR-FRET assay
Outline: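 Competition of compounds with AlexaFluor-tagged cyclic peptide (1920 nM solution, not final) for europium-labeled PCSK9, read by TR-FRET after at least 2 h at room temperature. IC50 from sigmoidal fit, converted to Ki (nM) using peptide KD; falling europium counts flag false positives.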

[4] = Ki calculated from IC50 and KD of AF cyclic peptide Reagent A, 0.5 nM PCSK9, 20 nM AF cyclic peptide, read-out: Alexa FRET Stdt TR-FRET
[5] = Ki calculated from IC50 and KD of AF cyclic peptide Reagent B, 0.5 nM PCSK9, 960 nM AF cyclic peptide, read-out: Alexa FRET Plus TR-FRET
[6] = Ki Ultra, calculated from IC50 and KD of AF cyclic peptide, 0.5 nM PCSK9, 960 nM AF cyclic peptide, read-out: Alexa FRET Ultra TR-FRET

T1 sequence (Q8NBP7 153-692): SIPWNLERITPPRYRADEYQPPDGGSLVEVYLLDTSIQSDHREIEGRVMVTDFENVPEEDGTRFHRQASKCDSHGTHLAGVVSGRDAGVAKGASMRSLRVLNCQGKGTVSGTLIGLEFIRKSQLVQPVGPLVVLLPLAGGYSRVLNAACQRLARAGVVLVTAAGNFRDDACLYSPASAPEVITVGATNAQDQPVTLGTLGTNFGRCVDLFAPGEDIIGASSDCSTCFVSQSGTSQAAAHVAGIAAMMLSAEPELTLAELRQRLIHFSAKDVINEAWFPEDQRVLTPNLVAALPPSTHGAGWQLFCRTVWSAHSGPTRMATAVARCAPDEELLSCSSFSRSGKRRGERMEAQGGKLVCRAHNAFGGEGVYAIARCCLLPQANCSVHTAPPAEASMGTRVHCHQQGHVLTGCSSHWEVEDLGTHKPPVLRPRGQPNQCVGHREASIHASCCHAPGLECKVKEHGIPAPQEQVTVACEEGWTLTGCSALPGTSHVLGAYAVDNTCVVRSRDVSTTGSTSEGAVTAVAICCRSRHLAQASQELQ

Row | SMILES | Ki (PCSK9 [1]; [4]) | Ki (PCSK9 [2]; [5]) | Ki (PCSK9 [3]; [6]) | Ki (PCSK9 [1]) | Ki (PCSK9 [2]) | Ki (PCSK9 [3])
1 | COc1ccc(C[C@@H]2NC(=O)[C@H]([C@@H](C)O)NC(=O)[C@@H]3[C@@H]4CCN3C(=O)[C@@H]3Cc5cn(c6ccc(F)cc56)CCCCCCN(Cc5ccc(cc5)CCNC(=O)[C@]5(C)CCCN5C2=O)C(=O)CCC(=O)N[C@@H](C)C(=O)N[C@H](CNC(=O)COCC[N+](C)(C)CCOCCNC(=O)COCCOCCNC(=O)COCCOCCNC(=O)CC[C@H](NC(=O)CCCCCCCCCCCCCCCCC(=O)O)C(=O)O)C(=O)N[C@@H](Cc2cccc(c2)CNC(=O)CO4)C(=O)N3)cc1 [Ex-35] | < 1260 pM | 7 pM | 9 pM | – | – | –
2 | CCCCCCCCCCCCCCCC(=O)NCC[N+](C)(C)CCOCCOCCC(=O)NC[C@H]1NC(=O)[C@H](C)NC(=O)CCC(=O)N2CCCCCCn3cc(c4cc(F)ccc43)C[C@@H]3NC(=O)[C@H](Cc4cccc(c4)CNC(=O)CO[C@H]4CCN(C3=O)[C@@H]4C(=O)N[C@@H]([C@@H](C)O)C(=O)N[C@@H](Cc3ccc(OC)cc3)C(=O)N3CCC[C@@]3(C)C(=O)NCCc3ccc(cc3)C2)NC1=O [Ex-36] | < 1260 pM | 44 pM | 16 pM | – | – | –
3 | CCCCCCCCCCCCCCCC(=O)NCC[N+](C)(C)CCOCCOCCC(=O)NCCOCCOCC(=O)NCCOCCOCC(=O)NC[C@H]1NC(=O)[C@H](C)NC(=O)CCC(=O)N2CCCCCCn3cc(c4cc(F)ccc43)C[C@@H]3NC(=O)[C@H](Cc4cccc(c4)CNC(=O)CO[C@H]4CCN(C3=O)[C@@H]4C(=O)N[C@@H]([C@@H](C)O)C(=O)N[C@@H](Cc3ccc(OC)cc3)C(=O)N3CCC[C@@]3(C)C(=O)NCCc3ccc(cc3)C2)NC1=O [Ex-38] | < 1260 pM | 13 pM | 12 pM | – | – | –
4 | COc1ccc(C[C@@H]2NC(=O)[C@H]([C@@H](C)O)NC(=O)[C@@H]3[C@@H]4CCN3C(=O)[C@@H]3Cc5cn(c6ccc(F)cc56)CCCCCCN(Cc5ccc(cc5)CCNC(=O)[C@]5(C)CCCN5C2=O)C(=O)CCC(=O)N[C@@H](C)C(=O)N[C@H](CNC(=O)COCCOCCNC(=O)COCCOCCNC(=O)CCOCCOCC[N+](C)(C)CCNC(=O)CCCCCCCCCCCCCCC(=O)O)C(=O)N[C@@H](Cc2cccc(c2)CNC(=O)CO4)C(=O)N3)cc1 [Ex-39] | < 1260 pM | < 6 pM | 3 pM | – | – | –
5 | COc1ccc(C[C@@H]2NC(=O)[C@H]([C@@H](C)O)NC(=O)[C@@H]3[C@@H]4CCN3C(=O)[C@@H]3Cc5cn(c6ccc(F)cc56)CCCCCCN(Cc5ccc(cc5)CCNC(=O)[C@]5(C)CCCN5C2=O)C(=O)CCC(=O)N[C@@H](C)C(=O)N[C@H](CNC(=O)COCCOCC[N+](C)(C)CCNC(=O)COCCOCCNC(=O)COCCOCCNC(=O)CC[C@H](NC(=O)CCCCCCCCCCCCCCCCC(=O)O)C(=O)O)C(=O)N[C@@H](Cc2cccc(c2)CNC(=O)CO4)C(=O)N3)cc1 [Ex-40] | < 1260 pM | 8 pM | 4 pM | – | – | –
6 | COc1ccc(C[C@@H]2NC(=O)[C@H]([C@@H](C)O)NC(=O)[C@@H]3[C@@H]4CCN3C(=O)[C@@H]3Cc5cn(c6ccc(F)cc56)CCCCCCN(Cc5ccc(cc5)CCNC(=O)[C@]5(C)CCCN5C2=O)C(=O)CCC(=O)N[C@@H](C)C(=O)N[C@H](CNC(=O)COCCOCCNC(=O)COCCOCCNC(=O)CC[C@H](NC(=O)CCCCCCCCCCCCCCC(=O)O)C(=O)O)C(=O)N[C@@H](Cc2cccc(c2)CNC(=O)CO4)C(=O)N3)cc1 [Ex-41] | < 1260 pM | < 6 pM | 5 pM | – | – | –
7 | COc1ccc(C[C@@H]2NC(=O)[C@H]([C@@H](C)O)NC(=O)[C@@H]3[C@@H]4CCN3C(=O)[C@@H]3Cc5cn(c6ccc(F)cc56)CCCCCCN(Cc5ccc(cc5)CCNC(=O)[C@]5(C)CCCN5C2=O)C(=O)CCC(=O)N[C@@H](C)C(=O)N[C@H](CNC(=O)COCCOCCNC(=O)COCCOCCNC(=O)CC[C@H](NC(=O)CC[C@H](NC(=O)CCCCCCCCCCCCCCC(=O)O)C(=O)O)C(=O)O)C(=O)N[C@@H](Cc2cccc(c2)CNC(=O)CO4)C(=O)N3)cc1 [Ex-42] | < 1260 pM | < 6 pM | 10 pM | – | – | –
8 | COc1ccc(C[C@@H]2NC(=O)[C@H]([C@@H](C)O)NC(=O)[C@@H]3[C@@H]4CCN3C(=O)[C@@H]3Cc5cn(c6ccc(F)cc56)C/C=C/CCCN(Cc5ccc(cc5)CCNC(=O)[C@]5(C)CCCN5C2=O)C(=O)CCC(=O)N[C@@H](C)C(=O)N[C@H](CNC(=O)CCOCCOCC[N+](C)(C)CCNC(=O)COCCOCCNC(=O)COCCOCCNC(=O)CC[C@H](NC(=O)CC[C@H](NC(=O)CCCCCCCCCCCCCCCCC(=O)O)C(=O)O)C(=O)O)C(=O)N[C@@H](Cc2cccc(c2)CNC(=O)CO4)C(=O)N3)cc1 [Ex-44] | < 1260 pM | < 6 pM | 3 pM | – | – | –
9 | COc1ccc(C[C@@H]2NC(=O)[C@H]([C@@H](C)O)NC(=O)[C@@H]3[C@@H]4CCN3C(=O)[C@@H]3Cc5cn(c6ccc(F)cc56)CCCCCCN(Cc5ccc(cc5)CCNC(=O)[C@]5(C)CCCN5C2=O)C(=O)CCC(=O)N[C@@H](C)C(=O)N[C@H](CNC(=O)COCCOCC[N+](C)(C)CCOCCNC(=O)COCCOCCNC(=O)COCCOCCNC(=O)CC[C@H](NC(=O)CC[C@H](NC(=O)CCCCCCCCCCCCCCC(=O)O)C(=O)O)C(=O)O)C(=O)N[C@@H](Cc2cccc(c2)CNC(=O)CO4)C(=O)N3)cc1 [Ex-47] | < 1260 pM | < 6 pM | 3 pM | – | – | –
10 | COc1ccc(C[C@@H]2NC(=O)[C@H]([C@@H](C)O)NC(=O)[C@@H]3[C@@H]4CCN3C(=O)[C@@H]3Cc5cn(c6ccc(F)cc56)CCCCCCN(Cc5ccc(cc5)CCNC(=O)[C@]5(C)CCCN5C2=O)C(=O)CCC(=O)N[C@@H](C)C(=O)N[C@H](CNC(=O)CCOCCOCC[N+](C)(C)CCNC(=O)COCCOCCNC(=O)CC[C@H](NC(=O)CC[C@H](NC(=O)CC[C@H](NC(=O)CCCCCCCCCCCCCCCCC(=O)O)C(=O)O)C(=O)O)C(=O)O)C(=O)N[C@@H](Cc2cccc(c2)CNC(=O)CO4)C(=O)N3)cc1 [Ex-48] | < 1260 pM | < 6 pM | 9 pM | – | – | –
11 | COc1ccc(C[C@@H]2NC(=O)[C@H]([C@@H](C)O)NC(=O)[C@@H]3[C@@H]4CCN3C(=O)[C@@H]3Cc5cn(c6ccc(F)cc56)CCCCCCN(Cc5ccc(cc5)CCNC(=O)[C@]5(C)CCCN5C2=O)C(=O)CCC(=O)N[C@@H](C)C(=O)N[C@H](CNC(=O)CCOCCOCC[N+](C)(C)CCNC(=O)COCCOCCNC(=O)COCCOCCNC(=O)CC[C@@H](NC(=O)CC[C@@H](NC(=O)CCCCCCCCCCCCCCCCC(=O)O)C(=O)O)C(=O)O)C(=O)N[C@@H](Cc2cccc(c2)CNC(=O)CO4)C(=O)N3)cc1 [Ex-49] | – | < 6 pM | 3 pM | < 1260 pM | – | –
12 | COc1ccc(C[C@@H]2NC(=O)[C@H]([C@@H](C)O)NC(=O)[C@@H]3[C@@H]4CCN3C(=O)[C@@H]3Cc5cn(c6ccc(F)cc56)CCCCCCN(Cc5ccc(cc5)CCNC(=O)[C@]5(C)CCCN5C2=O)C(=O)CCC(=O)N[C@@H](C)C(=O)N[C@H](CNC(=O)COCCOCC[N+](C)(C)CCNC(=O)COCCOCCNC(=O)COCCOCCNC(=O)CC[C@H](NC(=O)CCCCCCCCOCCCCCCCCC(=O)O)C(=O)O)C(=O)N[C@@H](Cc2cccc(c2)CNC(=O)CO4)C(=O)N3)cc1 [Ex-50] | < 1260 pM | – | – | – | < 6 pM | 5 pM
13 | COc1ccc(C[C@@H]2NC(=O)[C@H]([C@@H](C)O)NC(=O)[C@@H]3[C@@H]4CCN3C(=O)[C@@H]3Cc5cn(c6ccc(F)cc56)CCCCCN(Cc5ccc(cc5)CCNC(=O)[C@]5(C)CCCN5C2=O)C(=O)CCC(=O)N[C@@H](C)C(=O)N[C@H](CNC(=O)CCOCCOCC[N+](C)(C)CCNC(=O)COCCOCCNC(=O)COCCOCCNC(=O)CC[C@H](NC(=O)CC[C@H](NC(=O)CCCCCCCCCCCCCCCCC(=O)O)C(=O)O)C(=O)O)C(=O)N[C@@H](Cc2cccc(c2)CNC(=O)CO4)C(=O)N3)cc1 [Ex-51] | < 1260 pM | – | – | – | 7 pM | 5 pM
14 | COc1ccc(C[C@@H]2NC(=O)[C@H]([C@@H](C)O)NC(=O)[C@@H]3[C@@H]4CCN3C(=O)[C@@H]3Cc5cn(c6ccc(F)cc56)CCCCCCN(Cc5ccc(cc5)CCNC(=O)[C@]5(C)CCCN5C2=O)C(=O)CCC(=O)N[C@@H](C)C(=O)N[C@H](CNC(=O)CCOCCOCC[N+](C)(C)CCNC(=O)Cc2c(C)n(C(=O)c5ccc(Cl)cc5)c5ccc(OC)cc25)C(=O)N[C@@H](Cc2cccc(c2)CNC(=O)CO4)C(=O)N3)cc1 [Ex-52] | < 1260 pM | < 6 pM | 1 pM | – | – | –
15 | COc1ccc(C[C@@H]2NC(=O)[C@H]([C@@H](C)O)NC(=O)[C@@H]3[C@@H]4CCN3C(=O)[C@@H]3Cc5cn(c6ccc(F)cc56)CCCCCCN(Cc5ccc(cc5)CCNC(=O)[C@]5(C)CCCN5C2=O)C(=O)CCC(=O)N[C@@H](C)C(=O)N[C@H](CNC(=O)COCCOCCNC(=O)CC[C@H](NC(=O)CCOCCOCC[N+](C)(C)CCNC(=O)COCCOCCNC(=O)COCCOCCNC(=O)CC[C@H](NC(=O)CCCCCCCCCCCCCCCCC(=O)O)C(=O)O)C(=O)O)C(=O)N[C@@H](Cc2cccc(c2)CNC(=O)CO4)C(=O)N3)cc1 [Ex-53] | < 1260 pM | – | – | – | 10 pM | 14 pM
16 | COc1ccc(C[C@@H]2NC(=O)[C@H]([C@@H](C)O)NC(=O)[C@@H]3[C@@H]4CCN3C(=O)[C@@H]3Cc5cn(c6ccc(F)cc56)CCCCCCN(Cc5ccc(cc5)CCNC(=O)[C@]5(C)CCCN5C2=O)C(=O)CCC(=O)N[C@@H](C)C(=O)N[C@H](CNC(=O)CCOCCOCC[N+](C)(C)CCNC(=O)CC[C@H](NC(=O)COCCOCCNC(=O)CC[C@H](NC(=O)CCCCCCCCCCCCCCCCC(=O)O)C(=O)O)C(=O)O)C(=O)N[C@@H](Cc2cccc(c2)CNC(=O)CO4)C(=O)N3)cc1 [Ex-54] | < 1260 pM | 21 pM | 14 pM | – | – | –
